Measured values as given in US9340521B2, “Method for dual inhibition of SGLT1 and SGLT2 using diphenylmethane derivatives” (GREEN CROSS CORPORATION, priority 2013, dated 2016).

Columns and labels:
Human SGLT2 (hSGLT2) = Human SGLT2 (hSGLT2) (Homo sapiens (Human), UniProt P31639); experiment: Inhibitory effects on human SGLT2 activities (14C-AMG uptake, sodium-dependent glucose transport assay); format: cell-based; settings: hSGLT2-expressing CHO cells, 37° C. for 2 h, single determinations
Excerpt: Test 1: Cloning and Cell Line Construction for Human SGLT2
Human SGLT2 (hSGLT2) gene was amplified by PCR from cDNA-Human Adult Normal Tissue Kidney (Invitrogen). The hSGLT2 sequence was cloned into pcDNA3.1(+) for mammalian expression and stably transfected into chinese hamster ovary (CHO) cells. SGLT2-expressing clones were selected based on resistance to G418 antibiotic (Geneticin) and activity in the ^14C-α-methyl-D-glucopyranoside (^14C-AMG) uptake assay.
Test 2: Inhibitory Effects on Human SGLT2 Activities
(§1) For sodium-dependent glucose transport assay, cells expressing hSGLT2 were seeded into a 96-well culture plate at a density of 5×10^4 cells/well in RPMI medium 1640 containing 10% fetal bovine serum. The cells were used 1 day after plating. They were incubated in pretreatment buffer (10 mM HEPES, 5 mM Tris, 140 mM choline chloride, 2 mM KCl, 1 mM CaCl2, and 1 mM MgCl2, pH 7.4) at 37° C. for 10 min. They were then incubated in uptake buffer (10 mM HEPES, 5 mM Tris, 140 mM NaCl, 2 mM KCl, 1 mM CaCl2, 1 mM MgCl2, and 1 mM ^14C-nonlabeled AMG pH 7.4) containing ^14C-labeled AMG (8 μM) and the inventive compound or dimethyl sulfoxide (DMSO) vehicle at 37° C. for 2 h. Cells were washed twice with washing buffer (pretreatment buffer containing 10 mM AMG at room temperature) and then the radioactivity was measured using a liquid scintillation counter. IC50 was determined by nonlinear regression analysis using GraphPad PRISM [Katsuno, K. et al. J. Pharmacol. Exp. Ther. 2007, 320, 323-330; Han, S. et al. Diabetes, 2008, 57, 1723-1729].

Human SGLT1 (hSGLT1) = Human SGLT1 (hSGLT1) (Homo sapiens (Human), UniProt P13866); experiment: Inhibitory effects on human SGLT1 activities (14C-AMG uptake, sodium-dependent glucose transport assay); format: cell-based; settings: 37° C. for 2 h, single determinations
Sequence of Human SGLT1 (hSGLT1) (P13866 whole entry): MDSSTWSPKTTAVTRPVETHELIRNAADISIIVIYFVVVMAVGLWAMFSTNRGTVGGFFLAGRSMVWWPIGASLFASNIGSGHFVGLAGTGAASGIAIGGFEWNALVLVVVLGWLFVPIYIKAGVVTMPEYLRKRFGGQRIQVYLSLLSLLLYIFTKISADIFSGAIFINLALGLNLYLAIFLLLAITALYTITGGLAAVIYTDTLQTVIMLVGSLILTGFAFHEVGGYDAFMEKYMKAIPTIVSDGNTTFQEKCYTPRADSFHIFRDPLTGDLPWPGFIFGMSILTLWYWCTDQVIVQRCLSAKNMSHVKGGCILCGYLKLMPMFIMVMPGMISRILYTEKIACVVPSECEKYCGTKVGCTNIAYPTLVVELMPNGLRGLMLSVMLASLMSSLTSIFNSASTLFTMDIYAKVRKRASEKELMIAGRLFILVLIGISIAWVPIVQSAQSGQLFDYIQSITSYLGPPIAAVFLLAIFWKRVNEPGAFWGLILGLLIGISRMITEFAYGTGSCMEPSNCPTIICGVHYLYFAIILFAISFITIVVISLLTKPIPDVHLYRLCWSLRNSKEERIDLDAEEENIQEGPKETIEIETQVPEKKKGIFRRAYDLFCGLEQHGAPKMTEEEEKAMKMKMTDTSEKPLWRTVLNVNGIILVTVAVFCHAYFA
Protocol: Test 3: Inhibitory Effects on Human SGLT1 Activities
as §1, with “^14C-labeled” for “^14C-labeled AMG”, “inhibitor” for “the inventive compound”, “PRISM.” for “PRISM [Katsuno, K. et al. J. Pharmacol. Exp. Ther. 2007, 320, 323-330; Han, S. et al. Diabetes, 2008, 57, 1723-1729].”

Sequence of Human SGLT2 (hSGLT2) (P31639 whole entry): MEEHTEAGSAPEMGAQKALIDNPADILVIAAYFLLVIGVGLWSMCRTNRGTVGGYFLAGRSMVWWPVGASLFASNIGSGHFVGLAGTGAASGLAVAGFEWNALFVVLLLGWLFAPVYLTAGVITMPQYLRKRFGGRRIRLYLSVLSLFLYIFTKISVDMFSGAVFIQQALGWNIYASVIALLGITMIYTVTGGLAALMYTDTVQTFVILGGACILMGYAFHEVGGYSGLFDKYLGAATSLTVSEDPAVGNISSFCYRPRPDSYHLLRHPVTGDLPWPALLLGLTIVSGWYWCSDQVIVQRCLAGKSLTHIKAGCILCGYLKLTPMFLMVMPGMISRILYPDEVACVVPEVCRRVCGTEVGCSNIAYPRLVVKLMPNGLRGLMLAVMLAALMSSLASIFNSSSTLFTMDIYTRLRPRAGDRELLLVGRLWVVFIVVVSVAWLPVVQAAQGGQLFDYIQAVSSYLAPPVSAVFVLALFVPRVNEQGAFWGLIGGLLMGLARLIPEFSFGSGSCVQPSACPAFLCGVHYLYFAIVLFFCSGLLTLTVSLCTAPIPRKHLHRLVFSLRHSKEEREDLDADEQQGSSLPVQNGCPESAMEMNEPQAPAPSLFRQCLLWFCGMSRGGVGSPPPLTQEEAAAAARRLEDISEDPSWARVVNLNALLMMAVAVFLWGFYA

Structure (SMILES)	IC50 (Human SGLT2 (hSGLT2))	IC50 (Human SGLT1 (hSGLT1))
COc1ccc(Cc2cc([C@@H]3O[C@H](CO)[C@@H](O)[C@H](O)[C@H]3O)c3c(c2Br)CCC3)cc1 [Compound E001, (2S,3R,4R,5S,6R)-2-(7-Bromo-6-(4-methoxybenzyl)-2,3-dihydro-1H-inden-4-yl)-6-(hydroxymethyl)tetrahydro-2H-pyran-3,4,5-triol]	0.44 nM	15.2 nM
CCOc1ccc(Cc2cc([C@@H]3O[C@H](CO)[C@@H](O)[C@H](O)[C@H]3O)c3c(c2Br)CCC3)cc1 [Compound E002, (2S,3R,4R,5S,6R)-2-(7-Bromo-6-(4-ethoxybenzyl)-2,3-dihydro-1H-inden-4-yl)-6-(hydroxymethyl)tetrahydro-2H-pyran-3,4,5-triol]	0.75 nM	62.7 nM
CCc1ccc(Cc2cc([C@@H]3O[C@H](CO)[C@@H](O)[C@H](O)[C@H]3O)c3c(c2Br)CCC3)cc1 [Compound E003, (2S,3R,4R,5S,6R)-2-(7-Bromo-6-(4-ethylbenzyl)-2,3-dihydro-1H-inden-4-yl)-6-(hydroxymethyl)tetrahydro-2H-pyran-3,4,5-triol]	0.61 nM	45.4 nM
COc1ccc(Cc2cc([C@@H]3O[C@H](CO)[C@@H](O)[C@H](O)[C@H]3O)c3c(c2Cl)CCC3)cc1 [Compound E004, (2S,3R,4R,5S,6R)-2-(7-Chloro-6-(4-methoxybenzyl)-2,3-dihydro-1H-inden-4-yl)-6-(hydroxymethyl)tetrahydro-2H-pyran-3,4,5-triol]	0.68 nM	37.2 nM
COc1ccc(Cc2cc([C@@H]3O[C@H](CO)[C@@H](O)[C@H](O)[C@H]3O)c3c(c2C)CCC3)cc1 [Compound E005, (2R,3S,4R,5R,6S)-2-(Hydroxymethyl)-6-(6-(4-methoxybenzyl)-7-methyl-2,3-dihydro-1H-inden-4-yl)tetrahydro-2H-pyran-3,4,5-triol]	0.79 nM	26.8 nM
CCOc1ccc(Cc2cc([C@@H]3O[C@H](CO)[C@@H](O)[C@H](O)[C@H]3O)c3c(c2Cl)CCC3)cc1 [Compound E006, (2S,3R,4R,5S,6R)-2-(7-Chloro-6-(4-ethoxybenzyl)-2,3-dihydro-1H-inden-4-yl)-6-(hydroxymethyl)tetrahydro-2H-pyran-3,4,5-triol]	0.55 nM	116 nM
CCOc1ccc(Cc2cc([C@@H]3O[C@H](CO)[C@@H](O)[C@H](O)[C@H]3O)c3c(c2C)CCC3)cc1 [Compound E007, (2S,3R,4R,5S,6R)-2-(6-(4-Ethoxybenzyl)-7-methyl-2,3-dihydro-1H-inden-4-yl)-6-(hydroxymethyl)tetrahydro-2H-pyran-3,4,5-triol]		160 nM
CCc1ccc(Cc2cc([C@@H]3O[C@H](CO)[C@@H](O)[C@H](O)[C@H]3O)c3c(c2Cl)CCO3)cc1 [Compound E008, (2S,3R,4R,5S,6R)-2-(4-Chloro-5-(4-ethylbenzyl)-2,3-dihydrobenzofuran-7-yl)-6-(hydroxymethyl)tetrahydro-2H-pyran-3,4,5-triol]	0.88 nM	44 nM
CCOc1ccc(Cc2cc([C@@H]3O[C@H](CO)[C@@H](O)[C@H](O)[C@H]3O)c3c(c2Cl)CCCO3)cc1 [Compound E009, (2S,3R,4R,5S,6R)-2-(5-Chloro-6-(4-ethoxybenzyl)chroman-8-yl)-6-(hydroxymethyl)tetrahydro-2H-pyran-3,4,5-triol]	1.6 nM	77.2 nM

Continued, values first:

IC50 (Human SGLT2 (hSGLT2))	IC50 (Human SGLT1 (hSGLT1))	Structure (SMILES)
1.6 nM	16.9 nM	COc1ccc(Cc2cc([C@@H]3O[C@H](CO)[C@@H](O)[C@H](O)[C@H]3O)c3c(c2Cl)CCCO3)cc1 [Compound E010, (2S,3R,4R,5S,6R)-2-(5-Chloro-6-(4-methoxybenzyl)chroman-8-yl)-6-(hydroxymethyl)tetrahydro-2H-pyran-3,4,5-triol]
0.85 nM	27 nM	CCc1ccc(Cc2cc([C@@H]3O[C@H](CO)[C@@H](O)[C@H](O)[C@H]3O)c3c(c2Cl)CCCO3)cc1 [Compound E011, (2S,3R,4R,5S,6R)-2-(5-Chloro-6-(4-ethylbenzyl)chroman-8-yl)-6-(hydroxymethyl)tetrahydro-2H-pyran-3,4,5-triol]
1.7 nM	34.4 nM	COc1ccc(Cc2cc([C@@H]3O[C@H](CO)[C@@H](O)[C@H](O)[C@H]3O)c3c(c2Cl)CCO3)cc1 [Compound E012, (2S,3R,4R,5S,6R)-2-(4-Chloro-5-(4-methoxybenzyl)-2,3-dihydrobenzofuran-7-yl)-6-(hydroxymethyl)tetrahydro-2H-pyran-3,4,5-triol]
0.83 nM	105 nM	CCOc1ccc(Cc2cc([C@@H]3O[C@H](CO)[C@@H](O)[C@H](O)[C@H]3O)c3c(c2Cl)CCO3)cc1 [Compound E013, (2S,3R,4R,5S,6R)-2-(4-Chloro-5-(4-ethoxybenzyl)-2,3-dihydrobenzofuran-7-yl)-6-(hydroxymethyl)tetrahydro-2H-pyran-3,4,5-triol]
0.75 nM	61.5 nM	CCc1ccc(Cc2cc([C@@H]3O[C@H](CO)[C@@H](O)[C@H](O)[C@H]3O)c3c(c2Cl)OCCC3)cc1 [Compound E014, (2S,3R,4R,5S,6R)-2-(8-Chloro-7-(4-ethylbenzyl)chroman-5-yl)-6-(hydroxymethyl)tetrahydro-2H-pyran-3,4,5-triol]
	34 nM	COc1ccc(Cc2cc([C@@H]3O[C@H](CO)[C@@H](O)[C@H](O)[C@H]3O)c3c(c2Cl)OCCO3)cc1 [Compound E015, (2S,3R,4R,5S,6R)-2-(8-Chloro-7-(4-methoxybenzyl)-2,3-dihydrobenzo[b][1,4]dioxin-5-yl)-6-(hydroxymethyl)tetrahydro-2H-pyran-3,4,5-triol]
0.92 nM	83 nM	CCc1ccc(Cc2cc([C@@H]3O[C@H](CO)[C@@H](O)[C@H](O)[C@H]3O)c3c(c2Cl)OCCO3)cc1 [Compound E016, (2S,3R,4R,5S,6R)-2-(8-Chloro-7-(4-ethylbenzyl)-2,3-dihydrobenzo[b][1,4]dioxin-5-yl)-6-(hydroxymethyl)tetrahydro-2H-pyran-3,4,5-triol]
1.1 nM	52.2 nM	OC[C@H]1O[C@@H](c2cc(Cc3ccc(C4CC4)cc3)c(Cl)c3c2OCC3)[C@H](O)[C@@H](O)[C@@H]1O [Compound E017, (2S,3R,4R,5S,6R)-2-(4-Chloro-5-(4-cyclopropylbenzyl)-2,3-dihydrobenzofuran-7-yl)-6-(hydroxymethyl)tetrahydro-2H-pyran-3,4,5-triol]
0.85 nM	26.6 nM	OC[C@H]1O[C@@H](c2cc(Cc3ccc(C4CC4)cc3)c(Cl)c3c2OCCC3)[C@H](O)[C@@H](O)[C@@H]1O [Compound E018, (2S,3R,4R,5S,6R)-2-(5-Chloro-6-(4-cyclopropylbenzyl)chroman-8-yl)-6-(hydroxymethyl)tetrahydro-2H-pyran-3,4,5-triol]
0.98 nM	111 nM	CCc1ccc(Cc2cc([C@@H]3O[C@H](CO)[C@@H](O)[C@H](O)[C@H]3O)c3c(c2Cl)CC(C)S3)cc1 (stereo partly drawn) [Compound E019, (2S,3R,4R,5S,6R)-2-(4-Chloro-5-(4-ethylbenzyl)-2-methyl-2,3-dihydrobenzo[b]thiophen-7-yl)-6-(hydroxymethyl)tetrahydro-2H-pyran-3,4,5-triol]
0.69 nM	115 nM	CCOc1ccc(Cc2cc([C@@H]3O[C@H](SC)[C@@H](O)[C@H](O)[C@H]3O)c3c(c2Cl)CC(C)O3)cc1 (stereo partly drawn) [Compound E020, (2S,3R,4R,5S,6R)-2-(4-Chloro-5-(4-ethoxybenzyl)-2-methyl-2,3-dihydrobenzofuran-7-yl)-6-(methylthio)tetrahydro-2H-pyran-3,4,5-triol]
0.71 nM	166 nM	CCOc1ccc(Cc2cc([C@@H]3O[C@H](SC)[C@@H](O)[C@H](O)[C@H]3O)c3c(c2Cl)OCCO3)cc1 [Compound E021, (2S,3R,4R,5S,6R)-2-(8-Chloro-7-(4-ethoxybenzyl)-2,3-dihydrobenzo[b][1,4]dioxin-5-yl)-6-(methylthio)tetrahydro-2H-pyran-3,4,5-triol]
0.88 nM	50 nM	OC[C@H]1O[C@@H](c2cc(Cc3ccc(C4CC4)cc3)c(Cl)c3c2CCCO3)[C@H](O)[C@@H](O)[C@@H]1O [Compound E022, (2S,3R,4R,5S,6R)-2-(8-Chloro-7-(4-cyclopropylbenzyl)chroman-5-yl)-6-(hydroxymethyl)tetrahydro-2H-pyran-3,4,5-triol]
